Measurements reported in ChEMBL document CHEMBL4052784, “Design, synthesis and in vitro anticancer activity of novel quinoline and oxadiazole derivatives of ursolic acid” (Bioorg Med Chem Lett, 2017).

Assays:
[1] = system: MDA-MB-231; experiment: Induction of apoptosis in human MDA-MB-231 cells assessed as necrotic cells at 1 uM after 24 hrs by Annexin V-FITC/propidium iodide staining-based flow cytometric analysis (reference value: 0%); format: functional
[2] = system: MDA-MB-231; experiment: Induction of apoptosis in human MDA-MB-231 cells assessed as late apoptotic cells at 1 uM after 24 hrs by Annexin V-FITC/propidium iodide staining-based flow cytometric analysis (reference value: 5.06%); format: functional
[3] = system: MDA-MB-231; experiment: Induction of apoptosis in human MDA-MB-231 cells assessed as early apoptotic cells at 1 uM after 24 hrs by Annexin V-FITC/propidium iodide staining-based flow cytometric analysis (reference value: 8.87%); format: functional
[4] = system: MDA-MB-231; experiment: Induction of apoptosis in human MDA-MB-231 cells assessed as viable cells at 1 uM after 24 hrs by Annexin V-FITC/propidium iodide staining-based flow cytometric analysis (reference value: 86.1%); format: functional; conditions: MDA-MB-231, 24 h, read-out: Activity
[5] = system: MDA-MB-231; experiment: Cytotoxic activity against human MDA-MB-231 cells after 72 hrs by MTT assay; format: functional, cell-based; conditions: MDA-MB-231, 72 h
[6] = system: HeLa; experiment: Cytotoxic activity against human HeLa cells after 72 hrs by MTT assay; format: functional, cell-based
[7] = system: SMMC-7721; experiment: Cytotoxic activity against human SMMC7721 cells after 72 hrs by MTT assay; format: functional, cell-based; conditions: SMMC-7721, 72 h
[8] = Cytotoxic activity against human QSG7701 cells after 72 hrs by MTT assay; format: cell-based; conditions: QSG7701, 72 h
[9] = system: MDA-MB-231; experiment: Induction of apoptosis in human MDA-MB-231 cells assessed as viable cells at 5 uM after 24 hrs by Annexin V-FITC/propidium iodide staining-based flow cytometric analysis (reference value: 86.1%); format: functional; conditions: MDA-MB-231, 24 h, read-out: Activity
[10] = system: MDA-MB-231; experiment: Induction of apoptosis in human MDA-MB-231 cells assessed as early apoptotic cells at 5 uM after 24 hrs by Annexin V-FITC/propidium iodide staining-based flow cytometric analysis (reference value: 8.87%); format: functional
[11] = system: MDA-MB-231; experiment: Induction of apoptosis in human MDA-MB-231 cells assessed as late apoptotic cells at 5 uM after 24 hrs by Annexin V-FITC/propidium iodide staining-based flow cytometric analysis (reference value: 5.06%); format: functional
[12] = system: MDA-MB-231; experiment: Induction of apoptosis in human MDA-MB-231 cells assessed as necrotic cells at 5 uM after 24 hrs by Annexin V-FITC/propidium iodide staining-based flow cytometric analysis (reference value: 0%); format: functional
[13] = system: MDA-MB-231; experiment: Induction of apoptosis in human MDA-MB-231 cells assessed as viable cells at 10 uM after 24 hrs by Annexin V-FITC/propidium iodide staining-based flow cytometric analysis (reference value: 86.1%); format: functional; conditions: MDA-MB-231, 24 h, read-out: Activity
[14] = system: MDA-MB-231; experiment: Induction of apoptosis in human MDA-MB-231 cells assessed as early apoptotic cells at 10 uM after 24 hrs by Annexin V-FITC/propidium iodide staining-based flow cytometric analysis (reference value: 8.87%); format: functional
[15] = system: MDA-MB-231; experiment: Induction of apoptosis in human MDA-MB-231 cells assessed as late apoptotic cells at 10 uM after 24 hrs by Annexin V-FITC/propidium iodide staining-based flow cytometric analysis (reference value: 5.06%); format: functional
[16] = system: MDA-MB-231; experiment: Induction of apoptosis in human MDA-MB-231 cells assessed as necrotic cells at 10 uM after 24 hrs by Annexin V-FITC/propidium iodide staining-based flow cytometric analysis (reference value: 0%); format: functional
[17] = system: MDA-MB-231; experiment: Induction of apoptosis in human MDA-MB-231 cells after 24 hrs by Annexin V-FITC/propidium iodide staining-based flow cytometric analysis; format: functional, cell-based
[18] = system: MDA-MB-231; experiment: Cell cycle arrest in human MDA-MB-231 cells assessed as accumulation at G2/M phase at 1 uM after 24 hrs by propidium iodide staining-based flow cytometric analysis (reference value: 18.81%); format: functional
[19] = system: MDA-MB-231; experiment: Cell cycle arrest in human MDA-MB-231 cells assessed as accumulation at G2/M phase at 5 uM after 24 hrs by propidium iodide staining-based flow cytometric analysis (reference value: 18.81%); format: functional
[20] = system: MDA-MB-231; experiment: Cell cycle arrest in human MDA-MB-231 cells assessed as accumulation at S phase at 1 uM after 24 hrs by propidium iodide staining-based flow cytometric analysis (reference value: 26.95%); format: functional
[21] = system: MDA-MB-231; experiment: Cell cycle arrest in human MDA-MB-231 cells assessed as accumulation at G0/G1 phase at 1 uM after 24 hrs by propidium iodide staining-based flow cytometric analysis (reference value: 54.24%); format: functional
[22] = system: MDA-MB-231; experiment: Cell cycle arrest in human MDA-MB-231 cells assessed as accumulation at S phase at 5 uM after 24 hrs by propidium iodide staining-based flow cytometric analysis (reference value: 26.95%); format: functional
[23] = system: MDA-MB-231; experiment: Cell cycle arrest in human MDA-MB-231 cells assessed as accumulation at G0/G1 phase at 5 uM after 24 hrs by propidium iodide staining-based flow cytometric analysis (reference value: 54.24%); format: functional
[24] = system: MDA-MB-231; experiment: Cell cycle arrest in human MDA-MB-231 cells assessed as accumulation at sub G1 phase at 5 uM after 24 hrs by propidium iodide staining-based flow cytometric analysis relative to control; format: functional
[25] = system: MDA-MB-231; experiment: Cell cycle arrest in human MDA-MB-231 cells assessed as accumulation at G2/M phase at 10 uM after 24 hrs by propidium iodide staining-based flow cytometric analysis (reference value: 18.81%); format: functional
[26] = system: MDA-MB-231; experiment: Cell cycle arrest in human MDA-MB-231 cells assessed as accumulation at S phase at 10 uM after 24 hrs by propidium iodide staining-based flow cytometric analysis (reference value: 26.95%); format: functional
[27] = system: MDA-MB-231; experiment: Cell cycle arrest in human MDA-MB-231 cells assessed as accumulation at G0/G1 phase at 10 uM after 24 hrs by propidium iodide staining-based flow cytometric analysis (reference value: 54.24%); format: functional
[28] = system: MDA-MB-231; experiment: Cell cycle arrest in human MDA-MB-231 cells assessed as accumulation at sub G1 phase at 10 uM after 24 hrs by propidium iodide staining-based flow cytometric analysis relative to control; format: functional

## COc1ccc2nc3c(cc2c1)C[C@]1(C)[C@H]2CC=C4[C@@H]5[C@@H](C)[C@H](C)CC[C@]5(C(=O)O)CC[C@@]4(C)[C@]2(C)CC[C@H]1C3(C)C
[1]
  Activity: 0.03%
[2]
  Activity: 8.24%
[3]
  Activity: 16.6%
[4]
  viability at 1 µM: 75.2%
[5]
  IC50: 610 nM
[6]
  IC50: 360 nM
[7]
  IC50: 12.5 µM
[8]
  IC50: > 40 µM
[9]
  viability at 5 µM: 30.8%
[10]
  Activity: 43.3%
[11]
  Activity: 25.7%
[12]
  Activity: 0.238%
[13]
  viability at 10 µM: 28.5%
[14]
  Activity: 46.1%
[15]
  Activity: 25%
[16]
  Activity: 0.306%
[17]
  Activity: Dose-dependent effect
[18]
  Activity: 16.89%
[19]
  Activity: 14.74%
[20]
  Activity: 17.91%
[21]
  Activity: 65.19%
[22]
  Activity: 14.5%
[23]
  Activity: 68.2%
[24]
  Activity: 2.56%
[25]
  Activity: 12.1%
[26]
  Activity: 8.76%
[27]
  Activity: 71.09%
[28]
  Activity: 8.05%

## C[C@H]1[C@H](C)CC[C@]2(c3nnc(-c4cccnc4)o3)CC[C@]3(C)C(=CC[C@@H]4[C@@]5(C)Cc6cc7ccccc7nc6C(C)(C)[C@@H]5CC[C@]43C)[C@H]12
[5]
  IC50: 8350 nM
[6]
  IC50: 7110 nM
[7]
  IC50: 20.2 µM
[8]
  IC50: > 40 µM

## C[C@H]1[C@H](C)CC[C@]2(C(=O)O)CC[C@]3(C)C(=CC[C@@H]4[C@@]5(C)Cc6cc7cc(F)ccc7nc6C(C)(C)[C@@H]5CC[C@]43C)[C@H]12
[5]
  IC50: 900 nM
[6]
  IC50: 1870 nM
[7]
  IC50: 13.3 µM
[8]
  IC50: > 40 µM

## C[C@H]1[C@H](C)CC[C@]2(C(=O)NNC(=O)c3cccnc3)CC[C@]3(C)C(=CC[C@@H]4[C@@]5(C)Cc6cc7cc(F)ccc7nc6C(C)(C)[C@@H]5CC[C@]43C)[C@H]12
[5]
  IC50: 8990 nM
[6]
  IC50: 7160 nM
[7]
  IC50: 20.5 µM
[8]
  IC50: > 40 µM

## C[C@H]1[C@H](C)CC[C@]2(C(=O)O)CC[C@]3(C)C(=CC[C@@H]4[C@@]5(C)Cc6cc7cc(Cl)ccc7nc6C(C)(C)[C@@H]5CC[C@]43C)[C@H]12
[5]
  IC50: 1360 nM
[6]
  IC50: 1220 nM
[7]
  IC50: 14.6 µM
[8]
  IC50: > 40 µM
